In patent publication US12084472B2 (Ardelyx, Inc., priority 2015, dated 2024):

Molecular target: T1, human TGR5 (Homo sapiens, UniProt Q8TDU6)
T1 construct: expressed in transfected cells; host or cells: HEK293
T1 sequence (Q8TDU6 1-330): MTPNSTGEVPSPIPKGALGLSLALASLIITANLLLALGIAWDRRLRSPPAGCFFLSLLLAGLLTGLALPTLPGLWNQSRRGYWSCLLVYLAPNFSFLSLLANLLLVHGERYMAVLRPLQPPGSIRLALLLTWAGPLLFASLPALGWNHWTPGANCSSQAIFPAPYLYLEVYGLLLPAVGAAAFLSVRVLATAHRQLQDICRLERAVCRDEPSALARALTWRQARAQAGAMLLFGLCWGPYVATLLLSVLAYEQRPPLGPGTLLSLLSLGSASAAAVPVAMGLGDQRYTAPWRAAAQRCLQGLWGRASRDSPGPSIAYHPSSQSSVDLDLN
Assay: Cell-based TGR5 assay (cAMP generation, HTRF)
Conditions: HEK293 cells stably transfected with human TGR5; cAMP by HTRF; 30 minutes at 37° C.; read-out: pEC50 Human TGR5 (converted)
Method in brief: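 Read-out was HTRF detection of cAMP, converted to concentration via a standard curve and fitted (3-parameter logistic) for pEC50 and maximal response. Agonist stimulation used HEK293 cells stably transfected with human TGR5, incubated 30 min at 37° C in IBMX-containing buffer at 0.05 nM to 10 μM compound.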

Row | SMILES | EC50 [nM]
1 | Clc1ccc(Cl)c(COC2(c3cnccc3-c3ccccc3OC3CC3)COC2)c1 [Compound I-59, 4-(2-cyclopropoxyphenyl)-3-[3-[(2,5-dichlorophenyl)methoxy]oxetan-3-yl]pyridine] | < 100
2 | CC(CCCCC(=O)O)c1ccc(Cl)c(CNC2(c3cnccc3-c3ccccc3OC3CC3)CC2)c1 (centres unmarked) [Compound I-249, 6-{4-chloro-3-[({1-[4-(2-cyclopropoxyphenyl)pyridin-3-yl]cyclopropyl}amino)methyl]phenyl}heptanoic acid] | < 100
3 | O=C(CCCCc1cc(Cl)c(COC2(c3cnccc3-c3ccccc3OC3CC3)CC2)cc1Cl)NCCOCCOCCOCCNC(=O)CCCCc1cc(Cl)c(COC2(c3cnccc3-c3ccccc3OC3CC3)CC2)cc1Cl [Compound I-90, N,N′-(((oxybis(ethane-2,1-diyl))bis(oxy))bis(ethane-2,1-diyl))bis(5-(2,5-dichloro-4-((1-(4-(2-cyclopropoxyphenyl)pyridin-3-yl)cyclopropoxy)methyl)phenyl)pentanamide)] | 126 to 1000
4 | NCCOCCNS(=O)(=O)c1ccc(Cl)c(COC2(c3cnccc3-c3ccccc3OC3CC3)CC2)c1 [Compound I-399, N-[2-(2-aminoethoxy)ethyl]-4-chloro-3-({1-[4-(2-cyclopropoxyphenyl)pyridin-3-yl]cyclopropoxy}methyl)benzene-1-sulfonamide] | 126 to 1000
5 | O=C(NC[C@H](O)[C@@H](O)[C@H](O)[C@H](O)CO)[C@H]1[C@@H]2CN(S(=O)(=O)c3ccc(Cl)c(COC4(c5cnccc5-c5ccccc5OC5CC5)CC4)c3)C[C@@H]21 [Compound I-435, (1R,5S,6S)-3-[4-chloro-3-({1-[4-(2-cyclopropoxyphenyl)pyridin-3-yl]cyclopropoxy}methyl)benzenesulfonyl]-N-[(2S,3R,4R,5R)-2,3,4,5,6-pentahydroxyhexyl]-3-azabicyclo[3.1.0]hexane-6-carboxamide] | < 100
6 | Cc1ccc([C@H](C)CCCC(=O)N(C)C[C@H](O)[C@@H](O)[C@H](O)[C@H](O)CO)cc1CNC1(c2cnccc2-c2ccccc2OC2CC2)CC1 (single isomer, unassigned) [Compound I-351] | < 100
7 | Cc1ccc(C(C)CCCC(=O)N(C[C@H](O)[C@@H](O)[C@H](O)[C@H](O)CO)C(C)C)cc1CNC1(c2cnccc2-c2ccccc2OC2CC2)CC1 (stereo partly drawn) [Compound I-353, 5-{3-[({1-[4-(2-cyclopropoxyphenyl)pyridin-3-yl]cyclopropyl}amino)methyl]-4-methylphenyl}-N-[(2S,3R,4R,5R)-2,3,4,5,6-pentahydroxyhexyl]-N-(propan-2-yl)hexanamide] | < 100
8 | COCc1ccccc1-c1ccncc1C1(NCc2cc(Cl)ccc2Cl)CC1 [Compound I-12] | 126 to 1000
9 | Cc1ccc(C(C)CCCNC(=O)NC[C@H](O)[C@@H](O)[C@H](O)[C@H](O)CO)cc1CNC1(c2cnccc2-c2ccccc2OC2CC2)CC1 (stereo partly drawn) [Compound I-271, 1-(4-{3-[({l-[4-(2-cyclopropoxyphenyl)pyridin-3-yl]cyclopropyl}amino)methyl]-4-methylphenyl}pentyl)-3-[(2S,3R,4R,5R)-2,3,4,5,6-pentahydroxyhexyl]urea] | < 100
10 | O=C(CC1CCN(S(=O)(=O)c2ccc(Cl)c(COC3(c4cnccc4-c4ccccc4OC4CC4)CC3)c2)CC1)NC[C@H](O)[C@@H](O)[C@H](O)[C@H](O)CO [Compound I-441, 2-{1-[4-chloro-3-({1-[4-(2-cyclopropoxyphenyl)pyridin-3-yl]cyclopropoxy}methyl)benzenesulfonyl]piperidin-4-yl}-N-[(2S,3R,4R,5R)-2,3,4,5,6-pentahydroxyhexyl]acetamide] | 126 to 1000
11 | C=C(CCCNC(=O)NC[C@H](O)[C@@H](O)[C@H](O)[C@H](O)CO)c1ccc(Cl)c(CNC2(c3cnccc3-c3ccccc3OC3CC3)CC2)c1 [Compound I-383, 1-(4-{4-chloro-3-[({1-[4-(2-cyclopropoxyphenyl)pyridin-3-yl]cyclopropyl}amino)methyl]phenyl}pent-4-en-1-yl)-3-[(2S,3R,4R,5R)-2,3,4,5,6-pentahydroxyhexyl]urea] | < 100
12 | O=C(NCCCCc1ccc(Cl)c(CNC2(c3cnccc3-c3ccccc3OC3CC3)CC2)c1)NC[C@H](O)[C@@H](O)[C@H](O)[C@H](O)CO [Compound I-64, 1-(4-[4-chloro-3-[([1-[4-(2-cyclopropoxyphenyl)pyridin-3-yl]cyclopropyl]amino)methyl]phenyl]butyl)-3-[(2S,3R,4R,5R)-2,3,4,5,6-pentahydroxyhexyl]urea] | < 100
13 | O=C(O)CCNC(=O)N(CCCCc1cc(Cl)c(COC2(c3cnccc3-c3ccccc3OC3CC3)CC2)cc1Cl)C[C@H](O)[C@@H](O)[C@H](O)[C@H](O)CO [Compound I-198, 3-[({4-[2,5-dichloro-4-({1-[4-(2-cyclopropoxyphenyl)pyridin-3-yl]cyclopropoxy}methyl)phenyl]butyl}[(2S,3R,4R,5R)-2,3,4,5,6-pentahydroxyhexyl]carbamoyl)amino]propanoic acid] | < 100
14 | CN(CCO[C@@H]1O[C@H](CO)[C@@H](O)[C@H](O)[C@H]1O)C(=O)CCCCc1cc(Cl)c(COC2(c3cnccc3-c3ccccc3OC3CC3)CC2)cc1Cl [Compound I-121, 5-(2,5-dichloro-4-((1-(4-(2-cyclopropoxyphenyl)pyridin-3-yl)cyclopropoxy)methyl)phenyl)-N-methyl-N-(2-(((2R,3R,4S,5S,6R)-3,4,5-trihydroxy-6-(hydroxymethyl)tetrahydro-2H-pyran-2-yl)oxy)ethyl)pentanamide] | < 100
15 | Clc1ccc(Cl)c(CNC2(c3cnccc3-c3ccccc3OC3CC3)CC2)c1 [Compound I-1, 1-[4-(2-cyclopropoxyphenyl)pyridin-3-yl]-N-[(2,5-dichlorophenyl)methyl]cyclopropan-1-amine] | < 100

Now from value to molecule:

Row | EC50 [nM] | SMILES
16 | < 100 | CS(=O)(=O)NCCCCN(CCCCSc1ccc(Cl)c(COC2(c3cnccc3-c3ccccc3OC3CC3)CC2)c1)C(=O)[C@@H](O)[C@@H](O)[C@H](O)[C@@H](O)CO [Compound I-570, (2S,3S,4R,5S)-N-(4-{[4-chloro-3-({1-[4-(2-cyclopropoxyphenyl)pyridin-3-yl]cyclopropoxy}methyl)phenyl]sulfanyl}butyl)-2,3,4,5,6-pentahydroxy-N-(4-methanesulfonamidobutyl) hexanamide]
17 | 126 to 1000 | CN(CCCCNC(=O)N[C@@H](CO)[C@@H](O)[C@H](O)[C@H](O)CO)S(=O)(=O)c1cc(CNC2(c3cnccc3-c3ccccc3OC3CC3)CC2)c(Cl)cc1Cl [Compound I-476, 1-(4-{N-methyl2,4-dichloro-5-[({1-[4-(2-cyclopropoxyphenyl)pyridin-3-yl]cyclopropyl}amino)methyl]benzenesulfonamido}butyl)-3-[(2S,3R,4S,5R)-1,3,4,5,6-pentahydroxyhexan-2-yl]urea]
18 | < 100 | CCOC(=O)NCCCN(CCCSc1ccc(Cl)c(CNC2(c3cnccc3-c3ccccc3OC3CC3)CC2)c1)C(=O)[C@@H](O)[C@@H](O)[C@H](O)[C@@H](O)CO [Compound I-590, ethyl N-{3-[(2S,3S,4R,5S)-N-[3-({4-chloro-3-[({1-[4-(2-cyclopropoxyphenyl)pyridin-3-yl]cyclopropyl}amino)methyl]phenyl}sulfanyl)propyl]-2,3,4,5,6-pentahydroxyhexanamido]propyl} carbamate]
19 | < 100 | O=C(NCCCCCSc1ccc(Cl)c(COC2(c3cnccc3-c3ccccc3OC3CC3)CC2)c1)N[C@H]1CC[C@H](NC(=O)NC[C@H](O)[C@@H](O)[C@H](O)[C@H](O)CO)CC1 [Compound I-630, 1-(5-{[4-chloro-3-({1-[4-(2-cyclopropoxyphenyl)pyridin-3-yl]cyclopropoxy}methyl)phenyl]sulfanyl}pentyl)-3-[(1r,4r)-4-({[(2S,3R,4R,5R)-2,3,4,5,6-pentahydroxyhexyl]carbamoyl}amino)cyclohexyl]urea]
20 | < 100 | Cc1ccc(SCCCC(=O)N(C)C[C@H](O)[C@@H](O)[C@H](O)[C@H](O)CO)cc1COC1(c2cnccc2-c2ccccc2OC2CC2)CC1 [Compound I-652, 4-{[3-({1-[4-(2-cyclopropoxyphenyl)pyridin-3-yl]cyclopropoxy}methyl)-4-methylphenyl]sulfanyl}-N-methyl-N-[(2S,3R,4R,5R)-2,3,4,5,6-pentahydroxyhexyl]butanamide]
21 | < 100 | CCCN(C[C@H](O)[C@@H](O)[C@H](O)[C@H](O)CO)C(=O)CCCSc1ccc(Cl)c(COC2(c3cnccc3-c3ccccc3OC3CC3)CC2)c1 [Compound I-666, 4-{[4-chloro-3-({1-[4-(2-cyclopropoxyphenyl)pyridin-3-yl]cyclopropoxy}methyl)phenyl]sulfanyl}-N-[(2S,3R,4R,5R)-2,3,4,5,6-pentahydroxyhexyl]-N-propylbutanamide]
22 | < 100 | CN(C[C@H](O)[C@@H](O)[C@H](O)[C@H](O)CO)C(=O)CCCSc1ccc(Cl)c(CNC2(c3cnccc3-c3ccccc3OC3CC3)CC2)c1 [Compound I-650, 4-({4-chloro-3-[({1-[4-(2-cyclopropoxyphenyl)pyridin-3-yl]cyclopropyl}amino)methyl]phenyl}sulfanyl)-N-methyl-N-[(2S,3R,4R,5R)-2,3,4,5,6-pentahydroxyhexyl]butanamide]
23 | 1260 to 10000 | O=C([C@@H](O)[C@@H](O)[C@H](O)[C@@H](O)CO)N(CCCSc1ccc(Cl)c(CNC2(c3cnccc3-c3ccccc3OC3CC3)CC2)c1)C1CCS(=O)(=O)CC1 [Compound I-552, (2S,3S,4R,5S)-N-[3-({4-chloro-3-[({1-[4-(2-cyclopropoxyphenyl)pyridin-3-yl]cyclopropyl}amino)methyl]phenyl}sulfanyl)propyl]-N-(1,1-dioxo-1λ^6-thian-4-yl)-2,3,4,5,6-pentahydroxyhexanamide]
